Assay results as given in ChEMBL document CHEMBL1201862, “PubChem BioAssay data set” (2004).
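Method: 48-hour compound exposure of cells in 96-well plates, five concentrations, linear interpolation of endpoints. GI50 marks 50% less growth.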 The source made the active and inactive calls. No stated cut-off is given here; in the data, active = GI50 up to about 1.1 µM and inactive = higher.

What was measured:
Experiment in all cases: NCI-60 cell line screen, 48 h
CAKI-1 = system: CAKI-1
786-0 = system: 786-0
TK-10 = system: TK-10
NCI-H23 = system: NCI-H23
SK-MEL-28 = system: SK-MEL-28
COLO 205 = system: COLO 205
OVCAR-5 = system: OVCAR-5
SW-620 = system: SW-620
XF498 = system: XF498
Malme-3M = system: Malme-3M
HOP-92 = system: HOP-92
SNB-75 = system: SNB-75
DMS-114 = system: DMS-114
KM-20L2 = system: KM-20L2
SF-295 = system: SF-295
SK-OV-3 = system: SK-OV-3
UACC-257 = system: UACC-257
HL-60 = system: HL-60
OVCAR-3 = system: OVCAR-3
NCI-H226 = system: NCI-H226
HT-29 = system: HT-29
IGROV-1 = system: IGROV-1
SK-MEL-2 = system: SK-MEL-2
HCT-116 = system: HCT-116
RPMI-8226 = system: RPMI-8226
K562 = system: K562
A498 = system: A498
EKVX = system: EKVX
OVCAR-8 = system: OVCAR-8
LXFL 529 = system: LXFL 529
SN12C = system: SN12C
HOP-62 = system: HOP-62
M19-MEL = system: M19-MEL
UACC-62 = system: UACC-62
SNB-19 = system: SNB-19
ACHN = system: ACHN
LOX IMVI = system: LOX IMVI
SF-268 = system: SF-268
SK-MEL-5 = system: SK-MEL-5
M14 = system: M14
CCRF-CEM = system: CCRF-CEM
DLD-1 = system: DLD-1
NCI-H522 = system: NCI-H522
SF-539 = system: SF-539
RXF 393 = system: RXF 393
OVCAR-4 = system: OVCAR-4
HCC 2998 = system: HCC 2998
A549 = system: A549
UO-31 = system: UO-31
MOLT-4 = system: MOLT-4
KM12 = system: KM12
SNB-78 = system: SNB-78
HOP-18 = system: HOP-18
HCT-15 = system: HCT-15
NCI-H460 = system: NCI-H460
DMS-273 = system: DMS-273
U-251 = system: U-251

For `C/C(=N\O)C(CN1CCCCC1)C(c1ccccc1)c1c(O)c2ccccc2oc1=O` (configuration not stated), the GI50 (CAKI-1) was > 100 µM (inactive), the GI50 (786-0) was > 100 µM (inactive) and the GI50 (TK-10) was > 100 µM (inactive). The GI50 (NCI-H23) was > 100 µM (inactive), the GI50 (SK-MEL-28) was > 100 µM (inactive) and the GI50 (COLO 205) was > 100 µM (inactive). The GI50 (OVCAR-5) was > 100 µM (inactive), the GI50 (SW-620) was > 100 µM (inactive) and the GI50 (XF498) was > 100 µM (inactive). For the same molecule, the GI50 (Malme-3M) was > 100 µM (inactive), the GI50 (HOP-92) was 62.1 µM (inactive) and the GI50 (SNB-75) was > 100 µM (inactive). The GI50 (DMS-114) was > 100 µM (inactive), the GI50 (KM-20L2) was > 100 µM (inactive) and the GI50 (SF-295) was 54.8 µM (inactive). For the same molecule, the GI50 (SK-OV-3) was > 100 µM (inactive), the GI50 (UACC-257) was > 100 µM (inactive) and the GI50 (HL-60) was > 10 µM (inactive). The GI50 (OVCAR-3) was > 100 µM (inactive), the GI50 (NCI-H226) was > 100 µM (inactive) and the GI50 (HT-29) was > 100 µM (inactive). For the same molecule, the GI50 (IGROV-1) was > 100 µM (inactive), the GI50 (SK-MEL-2) was > 100 µM (inactive) and the GI50 (HCT-116) was > 100 µM (inactive). For the same molecule, the GI50 (RPMI-8226) was > 100 µM (inactive), the GI50 (K562) was > 10 µM (inactive) and the GI50 (A498) was > 100 µM (inactive). The GI50 (EKVX) was > 100 µM (inactive), the GI50 (OVCAR-8) was > 100 µM (inactive) and the GI50 (LXFL 529) was > 100 µM (inactive). The GI50 (SN12C) was > 100 µM (inactive), the GI50 (HOP-62) was > 100 µM (inactive) and the GI50 (M19-MEL) was > 100 µM (inactive). For the same molecule, the GI50 (UACC-62) was > 100 µM (inactive), the GI50 (SNB-19) was > 100 µM (inactive) and the GI50 (ACHN) was > 100 µM (inactive). For the same molecule, the GI50 (LOX IMVI) was > 100 µM (inactive), the GI50 (SF-268) was > 100 µM (inactive) and the GI50 (SK-MEL-5) was > 100 µM (inactive). The GI50 (M14) was > 100 µM (inactive), the GI50 (CCRF-CEM) was > 10 µM (inactive) and the GI50 (DLD-1) was > 100 µM (inactive). For the same molecule, the GI50 (NCI-H522) was > 100 µM (inactive), the GI50 (SF-539) was > 100 µM (inactive) and the GI50 (RXF 393) was > 100 µM (inactive). For the same molecule, the GI50 (OVCAR-4) was > 100 µM (inactive), the GI50 (HCC 2998) was > 100 µM (inactive) and the GI50 (A549) was > 100 µM (inactive).
With `COc1ccc(CNc2cc(OC)cc(OC)c2)cc1` the GI50 (786-0) was > 52.2 µM (inactive), the GI50 (UO-31) was 49.2 µM (inactive) and the GI50 (TK-10) was > 100 µM (inactive). The GI50 (NCI-H23) was > 80.2 µM (inactive), the GI50 (SK-MEL-28) was 44.4 µM (inactive) and the GI50 (XF498) was > 100 µM (inactive). The GI50 (Malme-3M) was > 72.8 µM (inactive), the GI50 (HOP-92) was 65.5 µM (inactive) and the GI50 (SNB-75) was > 42 µM (inactive). For the same molecule, the GI50 (DMS-114) was 49 µM (inactive), the GI50 (SK-OV-3) was > 80 µM (inactive) and the GI50 (MOLT-4) was > 81.8 µM (inactive). The GI50 (UACC-257) was > 91.8 µM (inactive), the GI50 (HL-60) was > 46.5 µM (inactive) and the GI50 (SK-MEL-2) was > 85.7 µM (inactive). The GI50 (RPMI-8226) was 58.9 µM (inactive), the GI50 (K562) was 22.4 µM (inactive) and the GI50 (EKVX) was > 76.6 µM (inactive). For the same molecule, the GI50 (OVCAR-8) was > 69.8 µM (inactive), the GI50 (LXFL 529) was 85.7 µM (inactive) and the GI50 (M19-MEL) was > 100 µM (inactive). For the same molecule, the GI50 (UACC-62) was 87.7 µM (inactive), the GI50 (KM12) was 84.3 µM (inactive) and the GI50 (ACHN) was > 100 µM (inactive). The GI50 (SF-268) was > 62.1 µM (inactive), the GI50 (SK-MEL-5) was 60.5 µM (inactive) and the GI50 (SNB-78) was 38.1 µM (inactive). For the same molecule, the GI50 (NCI-H522) was 35.8 µM (inactive), the GI50 (RXF 393) was > 68.4 µM (inactive) and the GI50 (OVCAR-4) was 77.1 µM (inactive). The GI50 (HCC 2998) was > 100 µM (inactive) and the GI50 (A549) was > 100 µM (inactive).
With `COc1ccc2c(c1)CC[C@@H]1C2CC[C@]2(C)C(=O)NC(=O)CC12` (some centres not stated) the GI50 (CAKI-1) was > 100 µM (inactive), the GI50 (786-0) was > 100 µM (inactive) and the GI50 (UO-31) was 97.7 µM (inactive). For the same molecule, the GI50 (TK-10) was > 100 µM (inactive), the GI50 (NCI-H23) was > 100 µM (inactive) and the GI50 (COLO 205) was > 100 µM (inactive). The GI50 (OVCAR-5) was > 100 µM (inactive), the GI50 (SW-620) was > 100 µM (inactive) and the GI50 (XF498) was > 100 µM (inactive). The GI50 (Malme-3M) was > 100 µM (inactive), the GI50 (HOP-18) was 26 µM (inactive) and the GI50 (HOP-92) was > 100 µM (inactive). The GI50 (KM-20L2) was > 100 µM (inactive), the GI50 (SF-295) was > 100 µM (inactive) and the GI50 (SK-OV-3) was > 100 µM (inactive). The GI50 (HCT-15) was > 100 µM, the GI50 (MOLT-4) was 61.8 µM (inactive) and the GI50 (NCI-H460) was > 100 µM (inactive). For the same molecule, the GI50 (UACC-257) was > 100 µM (inactive), the GI50 (HL-60) was 43.6 µM (inactive) and the GI50 (OVCAR-3) was > 100 µM (inactive). The GI50 (NCI-H226) was 67.5 µM (inactive), the GI50 (HT-29) was 56.2 µM (inactive) and the GI50 (IGROV-1) was > 100 µM (inactive). For the same molecule, the GI50 (SK-MEL-2) was > 100 µM (inactive), the GI50 (HCT-116) was > 100 µM (inactive) and the GI50 (DMS-273) was 65.8 µM (inactive). The GI50 (RPMI-8226) was > 100 µM (inactive), the GI50 (K562) was 25.2 µM (inactive) and the GI50 (A498) was > 100 µM (inactive). The GI50 (EKVX) was 84.1 µM (inactive), the GI50 (OVCAR-8) was > 100 µM (inactive) and the GI50 (LXFL 529) was 59.3 µM (inactive). For the same molecule, the GI50 (SN12C) was > 100 µM (inactive), the GI50 (HOP-62) was > 100 µM (inactive) and the GI50 (M19-MEL) was > 100 µM (inactive). For the same molecule, the GI50 (UACC-62) was > 100 µM (inactive), the GI50 (KM12) was > 100 µM (inactive) and the GI50 (SNB-19) was > 100 µM (inactive). The GI50 (ACHN) was > 100 µM (inactive), the GI50 (LOX IMVI) was > 100 µM (inactive) and the GI50 (U-251) was > 100 µM (inactive). For the same molecule, the GI50 (SF-268) was > 100 µM (inactive), the GI50 (SK-MEL-5) was 78.3 µM (inactive) and the GI50 (M14) was > 100 µM (inactive). The GI50 (CCRF-CEM) was 88.3 µM (inactive), the GI50 (DLD-1) was > 100 µM (inactive) and the GI50 (SNB-78) was > 100 µM (inactive). The GI50 (NCI-H522) was > 100 µM (inactive), the GI50 (SF-539) was > 100 µM (inactive) and the GI50 (HCC 2998) was 53.3 µM (inactive). For the same molecule, the GI50 (A549) was > 100 µM (inactive).
